Paper PMC8267566, “Human GPR17 missense variants identified in metabolic disease patients have distinct downstream signaling profiles” (The Journal of Biological Chemistry, 2021)

Assays:
Assay type in all cases: cell-based
hGPR17L-A131T = molecular target: T1, hGPR17L-A131T (Homo sapiens, UniProt Q13304, A131T); assay: Calcium flux assay
T1 construct: expressed in transfected cells; host or cells: HEK293 (ATCC CRL-1573), transient transfection
Description: (§1) HEK293 cells were seeded at 20,000 cells/well into black, optical bottom, poly-D-lysine coated 96-well plates. The following day, cells were transiently transfected with pcDNA3-HA-hGPR17L or pcDNA3-HA-hGPR17L-variants using lipofectamine 3000. Twenty-four hours after transfection, the growth medium and transfection mix were decanted and 100 μl/well assay buffer (HBSS, 20 mM HEPES, pH 7.2) and 100 μl/well Calcium 6 loading dye (R8190; Molecular Devices) were added to the plate and incubated at 37 °C, 5% CO2 for 1 h 45 min. Plate was allowed to equilibrate to room temperature on the bench top for 30 min. MDL29,951 diluted in assay buffer was added to the wells and fluorescence (485 nm excitation, 525 nm emission, and 515 nm automatic emission cutoff) was measured using a Molecular Devices FlexStation3 (Molecular Devices). For experiments with pertussis toxin, cells were pretreated with 100 ng/ml pertussis toxin overnight and 100 ng/ml pertussis toxin was included with Calcium 6 loading dye for calcium flux assays.

hGPR17L-D105N = molecular target: T2, hGPR17L-D105N (Homo sapiens, UniProt Q13304, D105N); assay: Calcium flux assay
T2 construct: expressed in transfected cells; host or cells: HEK293 (ATCC CRL-1573), transient transfection
Description: as §1

hGPR17L-F43L = molecular target: T3, hGPR17L-F43L (Homo sapiens, UniProt Q13304, F43L); assay: Calcium flux assay
T3 construct: expressed in transfected cells; host or cells: HEK293 (ATCC CRL-1573), transient transfection
Description: as §1

hGPR17L-G354V = molecular target: T4, hGPR17L-G354V (Homo sapiens, UniProt Q13304, G354V); assay: Calcium flux assay
T4 construct: expressed in transfected cells; host or cells: HEK293 (ATCC CRL-1573)
Description: as §1

hGPR17L-R248Q = molecular target: T5, hGPR17L-R248Q (Homo sapiens, UniProt Q13304, R248Q); assay: Calcium flux assay
T5 construct: expressed in transfected cells; host or cells: HEK293 (ATCC CRL-1573), transient transfection
Description: as §1

hGPR17L-R301H = molecular target: T6, hGPR17L-R301H (Homo sapiens, UniProt Q13304, R301H); assay: Calcium flux assay
T6 construct: expressed in transfected cells; host or cells: HEK293 (ATCC CRL-1573)
Description: as §1

hGPR17L-V103M = molecular target: T7, hGPR17L-V103M (Homo sapiens, UniProt Q13304, V103M); assay: Calcium flux assay
T7 construct: expressed in transfected cells; host or cells: HEK293 (ATCC CRL-1573), transient transfection
Description: as §1

hGPR17L-V96M = molecular target: T8, hGPR17L-V96M (Homo sapiens, UniProt Q13304, V96M); assay: Calcium flux assay
T8 construct: expressed in transfected cells; host or cells: HEK293 (ATCC CRL-1573), transient transfection
Description: as §1

hGPR17L-A131T-Tango = molecular target: T9, hGPR17L-A131T-Tango (Homo sapiens, UniProt Q13304, A131T); assay: Tango β-arrestin recruitment assay
T9 construct: Tango fusion module; host or cells: HTLA (HEK293T-derived)
Description: (§2) HTLA cells were seeded at 10,000 cells/well into white, opaque, poly-D-lysine-coated 96-well plates and transfected with hGPR17L-WT-Tango or hGPR17L-variant-Tango plasmids the following day using lipofectamine 3000 according to the manufacturer's protocol. The next day, cells were incubated at 37 °C and 5% CO2 in serum-free growth media for a 4 h serum starvation. MDL29,951 was then diluted in assay buffer (HBSS, 20 mM HEPES, pH 7.2), added to the cells, and incubated for 16 h at 37 °C and 5% CO2. Drug treatment was decanted and 80 μl/well of Promega Bright-Glo reagent (diluted 20× in assay buffer) (E2610; Promega Corporation) was added and incubated at room temperature for 15 min. Luminescence (1 s per well integration time) was read on a Molecular Devices SpectraMax iD5 plate reader.

hGPR17L-D105N-Tango = molecular target: T10, hGPR17L-D105N-Tango (Homo sapiens, UniProt Q13304, D105N); assay: Tango β-arrestin recruitment assay
T10 construct: Tango fusion module; host or cells: HTLA (HEK293T-derived)
Description: as §2

hGPR17L-F43L-Tango = molecular target: T11, hGPR17L-F43L-Tango (Homo sapiens, UniProt Q13304, F43L); assay: Tango β-arrestin recruitment assay
T11 construct: Tango fusion module; host or cells: HTLA (HEK293T-derived)
Description: as §2

hGPR17L-G136S-Tango = molecular target: T12, hGPR17L-G136S-Tango (Homo sapiens, UniProt Q13304, G136S); assay: Tango β-arrestin recruitment assay; settings: HTLA cells, 30 μM MDL29,951
T12 construct: Tango fusion module; host or cells: HTLA (HEK293T-derived)
Description: as §2

hGPR17L-G354V-Tango = molecular target: T13, hGPR17L-G354V-Tango (Homo sapiens, UniProt Q13304, G354V); assay: Tango β-arrestin recruitment assay
T13 construct: Tango fusion module; host or cells: HTLA (HEK293T-derived)
Description: as §2

hGPR17L-R248Q-Tango = molecular target: T14, hGPR17L-R248Q-Tango (Homo sapiens, UniProt Q13304, R248Q); assay: Tango β-arrestin recruitment assay
T14 construct: Tango fusion module; host or cells: HTLA (HEK293T-derived)
Description: as §2

hGPR17L-R301H-Tango = molecular target: T15, hGPR17L-R301H-Tango (Homo sapiens, UniProt Q13304, R301H); assay: Tango β-arrestin recruitment assay
T15 construct: Tango fusion module; host or cells: HTLA (HEK293T-derived)
Description: as §2

hGPR17L-V103M-Tango = molecular target: T16, hGPR17L-V103M-Tango (Homo sapiens, UniProt Q13304, V103M); assay: Tango β-arrestin recruitment assay
T16 construct: Tango fusion module; host or cells: HTLA (HEK293T-derived)
Description: as §2

hGPR17L-V96M-Tango = molecular target: T17, hGPR17L-V96M-Tango (Homo sapiens, UniProt Q13304, V96M); assay: Tango β-arrestin recruitment assay; settings: HTLA cells, MDL29,951 0.5 nM to 30 μM
T17 construct: Tango fusion module; host or cells: HTLA (HEK293T-derived)
Description: as §2

hGPR17L-WT-Tango = molecular target: T18, hGPR17L-WT-Tango (Homo sapiens, UniProt Q13304); assay: Tango β-arrestin recruitment assay
T18 construct: Tango fusion module; host or cells: HTLA (HEK293T-derived)
Description: as §2

[1] = read-out: Ca2+ EC50, HEK293, calcium mobilization
[2] = read-out: β-arrestin recruitment EC50, HTLA cells

T1 sequence (Q13304 whole entry A131T): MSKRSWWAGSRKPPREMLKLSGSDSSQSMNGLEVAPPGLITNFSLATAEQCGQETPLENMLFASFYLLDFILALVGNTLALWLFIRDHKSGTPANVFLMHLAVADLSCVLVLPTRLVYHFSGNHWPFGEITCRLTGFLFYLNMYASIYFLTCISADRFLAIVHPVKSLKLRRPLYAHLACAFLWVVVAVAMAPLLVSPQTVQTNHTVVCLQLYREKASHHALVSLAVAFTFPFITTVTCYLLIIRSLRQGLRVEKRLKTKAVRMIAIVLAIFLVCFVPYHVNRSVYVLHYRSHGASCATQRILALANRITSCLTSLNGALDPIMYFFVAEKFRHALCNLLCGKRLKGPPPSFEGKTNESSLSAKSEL
T9 sequence (Q13304 whole entry A131T, the tested form may be a part): as the sequence (Q13304 whole entry A131T) above
T11 sequence (Q13304 whole entry F43L, the tested form may be a part): as the sequence (Q13304 whole entry A131T) above, with F43L, T131A counted along it
T3 sequence (Q13304 whole entry F43L): as the sequence (Q13304 whole entry A131T) above, with F43L, T131A counted along it
T18 sequence (Q13304 whole entry, the tested form may be a part): as the sequence (Q13304 whole entry A131T) above, with T131A counted along it
T8 sequence (Q13304 whole entry V96M): as the sequence (Q13304 whole entry A131T) above, with V96M, T131A counted along it
T2 sequence (Q13304 whole entry D105N): as the sequence (Q13304 whole entry A131T) above, with D105N, T131A counted along it
T10 sequence (Q13304 whole entry D105N, the tested form may be a part): as the sequence (Q13304 whole entry A131T) above, with D105N, T131A counted along it
T5 sequence (Q13304 whole entry R248Q): as the sequence (Q13304 whole entry A131T) above, with T131A, R248Q counted along it
T14 sequence (Q13304 whole entry R248Q, the tested form may be a part): as the sequence (Q13304 whole entry A131T) above, with T131A, R248Q counted along it
T16 sequence (Q13304 whole entry V103M, the tested form may be a part): as the sequence (Q13304 whole entry A131T) above, with V103M, T131A counted along it
T7 sequence (Q13304 whole entry V103M): as the sequence (Q13304 whole entry A131T) above, with V103M, T131A counted along it
T6 sequence (Q13304 whole entry R301H): as the sequence (Q13304 whole entry A131T) above, with T131A, R301H counted along it
T15 sequence (Q13304 whole entry R301H, the tested form may be a part): as the sequence (Q13304 whole entry A131T) above, with T131A, R301H counted along it
T4 sequence (Q13304 whole entry G354V): as the sequence (Q13304 whole entry A131T) above, with T131A, G354V counted along it
T13 sequence (Q13304 whole entry G354V, the tested form may be a part): as the sequence (Q13304 whole entry A131T) above, with T131A, G354V counted along it
T17 sequence (Q13304 whole entry V96M, the tested form may be a part): as the sequence (Q13304 whole entry A131T) above, with V96M, T131A counted along it
T12 sequence (Q13304 whole entry G136S, the tested form may be a part): as the sequence (Q13304 whole entry A131T) above, with T131A, G136S counted along it

## O=C(O)CCc1c(C(=O)O)[nH]c2cc(Cl)cc(Cl)c12 [MDL29,951]
hGPR17L-A131T; HEK293
  Ca2+ Efficacy (% of WT Emax): 109 ± 8.9 % of WT Emax
hGPR17L-A131T; HEK293, calcium mobilization
  Ca2+ pEC50 ± SEM: 6.63 ± 0.08
hGPR17L-A131T; [1]
  EC50: 230 nM
hGPR17L-D105N
  calcium mobilization in the presence of pertussis toxin: reduced calcium mobilization
hGPR17L-D105N; hGPR17L-D105N
  fold less potent calcium response vs hGPR17L-WT: 6–7 fold
  reduction of efficacy of calcium response vs hGPR17L-WT: approximately 70%
hGPR17L-D105N; hGPR17L-D105N, HEK293
  Ca2+ Efficacy (% of WT Emax): 28 ± 4.5 % of WT Emax
hGPR17L-D105N; hGPR17L-D105N, HEK293, calcium mobilization
  Ca2+ pEC50 ± SEM: 6.21 ± 0.11
hGPR17L-D105N; read-out: Ca2+ EC50, hGPR17L-D105N, HEK293, calcium mobilization
  EC50: 620 nM
hGPR17L-F43L; HEK293
  Ca2+ Efficacy (% of WT Emax): 97 ± 3.9 % of WT Emax
hGPR17L-F43L; HEK293, calcium mobilization
  Ca2+ pEC50 ± SEM: 7.25 ± 0.19
hGPR17L-F43L; [1]
  EC50: 57 nM
hGPR17L-G354V; HEK293
  Ca2+ Efficacy (% of WT Emax): 92 ± 2.6 % of WT Emax
hGPR17L-G354V; HEK293, calcium mobilization
  Ca2+ pEC50 ± SEM: 7.05 ± 0.29
hGPR17L-G354V; [1]
  EC50: 89 nM
hGPR17L-R248Q; HEK293
  Ca2+ Efficacy (% of WT Emax): 103 ± 25 % of WT Emax
hGPR17L-R248Q; HEK293, calcium mobilization
  Ca2+ pEC50 ± SEM: 6.92 ± 0.02
hGPR17L-R248Q; [1]
  EC50: 120 nM
hGPR17L-R301H; HEK293
  Ca2+ Efficacy (% of WT Emax): 85 ± 3.6 % of WT Emax
hGPR17L-R301H; HEK293, calcium mobilization
  Ca2+ pEC50 ± SEM: 6.74 ± 0.14
hGPR17L-R301H; [1]
  EC50: 180 nM
hGPR17L-V103M; HEK293
  Ca2+ Efficacy (% of WT Emax): 119 ± 8.4 % of WT Emax
hGPR17L-V103M; HEK293, calcium mobilization
  Ca2+ pEC50 ± SEM: 6.66 ± 0.09
hGPR17L-V103M; [1]
  EC50: 220 nM
hGPR17L-V96M
  calcium mobilization in the presence of pertussis toxin: reduced calcium mobilization
hGPR17L-V96M; hGPR17L-V96M
  fold less potent calcium response vs hGPR17L-WT: 6–7 fold
  reduction of efficacy of calcium response vs hGPR17L-WT: approximately 70%
hGPR17L-V96M; hGPR17L-V96M, HEK293
  Ca2+ Efficacy (% of WT Emax): 31 ± 4.7 % of WT Emax
hGPR17L-V96M; hGPR17L-V96M, HEK293, calcium mobilization
  Ca2+ pEC50 ± SEM: 6.27 ± 0.05
hGPR17L-V96M; read-out: Ca2+ EC50, hGPR17L-V96M, HEK293, calcium mobilization
  EC50: 540 nM
hGPR17L-A131T-Tango; HTLA cells
  β-arrestin recruitment Efficacy (% of WT span): 97 ± 5.2 % of WT span
  β-arrestin recruitment pEC50 ± SEM: 6.55 ± 0.06
hGPR17L-A131T-Tango; [2]
  EC50: 280 nM
hGPR17L-D105N-Tango; HTLA cells
  β-arrestin recruitment Efficacy (% of WT span): 100 ± 5.0 % of WT span
  β-arrestin recruitment pEC50 ± SEM: 6.53 ± 0.03
hGPR17L-D105N-Tango; [2]
  EC50: 290 nM
hGPR17L-F43L-Tango; HTLA cells
  β-arrestin recruitment Efficacy (% of WT span): 61 ± 13 % of WT span
  β-arrestin recruitment pEC50 ± SEM: 7.08 ± 0.03
hGPR17L-F43L-Tango; [2]
  EC50: 83 nM
hGPR17L-G136S-Tango
  agonist-stimulated β-arrestin recruitment: only a modest response
hGPR17L-G354V-Tango; HTLA cells
  β-arrestin recruitment pEC50 ± SEM: 6.96 ± 0.04
hGPR17L-G354V-Tango; [2]
  EC50: 110 nM
hGPR17L-R248Q-Tango; HTLA cells
  β-arrestin recruitment Efficacy (% of WT span): 73 ± 16 % of WT span
  β-arrestin recruitment pEC50 ± SEM: 7.55 ± 0.16
hGPR17L-R248Q-Tango; [2]
  EC50: 28 nM
hGPR17L-R301H-Tango; HTLA cells
  β-arrestin recruitment Efficacy (% of WT span): 69 ± 9.0 % of WT span
  β-arrestin recruitment pEC50 ± SEM: 6.55 ± 0.04
hGPR17L-R301H-Tango; [2]
  EC50: 280 nM
hGPR17L-V103M-Tango; HTLA cells
  β-arrestin recruitment Efficacy (% of WT span): 84 ± 13 % of WT span
  β-arrestin recruitment pEC50 ± SEM: 6.69 ± 0.05
hGPR17L-V103M-Tango; [2]
  EC50: 210 nM
hGPR17L-V96M-Tango
  agonist-stimulated β-arrestin recruitment: no apparent agonist-stimulated β-arrestin recruitment
hGPR17L-WT-Tango; HTLA cells
  maximum β-arrestin recruitment response: 1.78 ± 0.09 fold over baseline
  β-arrestin recruitment Efficacy (% of WT span): 100 % of WT span
  β-arrestin recruitment pEC50 ± SEM: 7.02 ± 0.02
hGPR17L-WT-Tango; [2]
  EC50: 96 nM
